From patent publication US4057530A, “2-Phenyl-indole derivatives and process for preparing the same” (priority 1974, dated 1977)

How the values were obtained:
mice = experiment: Acute toxicity by oral route in mice (LD50); format: in vivo; settings: LD50 study
Protocol: (§1) The study of the acute toxicity of the stabilizers listed below was carried out by determining the dose of substance which provoked the death of 50% of the treated animals (LD50). A gummy suspension of the substance under study was administered by oral route to groups of at least ten mice and the following results were observed: […]

[1] = Acute toxicity by oral route in mice (LD50); format: in vivo; settings: mouse, in vivo, gummy suspension
Protocol: as §1

[2] = Static thermostability of stabilized resin, simplified method (GARDNER sub-scale), Compound A; settings: 210° C; for Colouration given to the polymer: 0 and 3 min
Protocol: (§2) The stabilizing power of the substances of the invention was studied from two points of view:
(§3) These studies were performed with six different formulae of vinyl resins (hereinafter referred to as Compounds).
(§4) The different compounds were mixed and calendered in a mixer of which the cylinders were heated to 160° C. The rigid sheets so obtained were then heated in an oven to a temperature between 180° C and 215° C, until incipient carbonization.
(§5) A stove with rotating drums, ventilated and equipped with a thermostat was used for this operation. In the trials described hereunder, the behaviour of a sheet containing the stabilizer to be tested was compared to that of a sheet of the same formula but containing 2-phenyl-indole as stabilizer.
2. It is also possible to use a simplified method which is more rapid and with which valid results are also obtained: a reference scale is drawn up with sheets of thermally treated polyvinyl chloride, of which the colourations have been definitely determined in GARDNER degrees as above. A GARDNER sub-scale is thus obtained in polyvinyl chloride sheets which can be directly compared to the sheets to be tested without using the comparator.
Finally, trials were carried out with Stabilizers 15, 16 and 17 and with 2-phenyl-indole. Compound A was used and the temperature was 210° C.

[3] = Static thermostability of stabilized resin, GARDNER Scale Comparator, Compound A; settings: 185° C
Protocol: as §2, §3, §4, §5
1. The colouration of the sheets, of which samples were removed from the stove at fixed intervals was compared to a standard scale of colouration, known as the GARDNER Scale, and expressed in terms of the reference figures of the GARDNER Scale.
Comparisons were made with a GARDNER Scale Comparator which contains 18 filters of coloured glass and which offers the possibility of observing by transparency and in a limited field of view both the sheet and the reference filters.

| Structure (SMILES) | Toxic symptoms (mice) | LD50 [1] [mg/kg] | Static thermostability compared with 2-phenyl-indole [2] | Colouration of sheet (GARDNER sub-scale) ([2]; 0 min) [GARDNER degrees] | Colouration of sheet (GARDNER sub-scale) ([2]; 3 min) [GARDNER degrees] | Colouration of sheet (GARDNER sub-scale) ([2]; 6 min) [GARDNER degrees] | Colouration of sheet (GARDNER sub-scale) ([2]; 9 min) [GARDNER degrees] | Colouration of sheet (GARDNER sub-scale) ([2]; 12 min) [GARDNER degrees] | Colouration of sheet (GARDNER sub-scale) ([2]; 15 min) | Colouration of sheet (GARDNER sub-scale) ([2]; 18 min) | further results |
| --- | --- | --- | --- | --- | --- | --- | --- | --- | --- | --- | --- |
| Sc1ccc(-c2cc3ccccc3[nH]2)cc1 [Stabilizer 1, 2-(4'-mercapto-phenyl)-indole] | none | > 2000 | superiority of Stabilizer 1 over 2-phenyl-indole | 1 | 2 | 2.5 | 7 | 11 | 12 GARDNER degrees |  |  |
| CSc1ccc(-c2cc3ccccc3[nH]2)cc1 [Stabilizer 3, 2-(4'-methylthio-phenyl)-indole] | none | > 3000 | markedly superior to 2-phenyl-indole | 1 | 1 | 2 | 3 | 8 | 10 GARDNER degrees |  |  |
| CC(=O)Oc1ccc(-c2cc3ccccc3[nH]2)cc1 [Stabilizer 4, 2-(4'-acetoxy-phenyl)-indole] | none | > 3000 |  |  |  |  |  |  |  |  |  |
| CCOC(=O)C(C)(C)Oc1ccc(-c2cc3ccccc3[nH]2)cc1 [Stabilizer 5, 2-(4'-carbethoxyisopropyloxy-phenyl)-indole] | none | > 3000 | markedly superior to 2-phenyl-indole |  |  |  |  |  |  |  |  |
| O=C(Oc1ccc(-c2cc3ccccc3[nH]2)cc1)c1ccccc1 [Stabilizer 6, 2-(4'-benzoyloxy-phenyl)-indole] | none | > 4000 |  |  |  |  |  |  |  |  |  |
| Nc1cccc(-c2cc3ccccc3[nH]2)c1 [Stabilizer 11, 2-(3'-amino-phenyl)-indole] |  |  | developed less rapidly than that due to 2-phenyl-indole | 3 | 3 | 4 | 5 | 10 | 12 GARDNER degrees | burnt | Colouration given to the polymer [2]: relatively intense yellow colouration |
| O=C(O)COc1ccc(-c2cc3ccccc3[nH]2)cc1 [Stabilizer 12, 2-(4'-carboxymethoxy-phenyl)-indole] |  |  | developed less rapidly than those due to 2-phenyl-indole | 2 | 2 | 3 |  |  | brown | burnt |  |
| CCOC(=O)COc1ccc(-c2cc3ccccc3[nH]2)cc1 [Stabilizer 13, 2-(4'-carbethoxymethoxy-phenyl)-indole] |  |  | markedly superior to 2-phenyl-indole | 2 | 2 | 3 | 3 | 9 | 11 GARDNER degrees | burnt |  |
| CC(=O)Nc1ccc(-c2cc3ccccc3[nH]2)cc1 [Stabilizer 14, 2-(4'-N-acetylamino-phenyl)-indole] |  |  | slightly superior to 2-phenyl-indole | 2 | 2 | 3 | 4 | 8 | 12 GARDNER degrees | burnt |  |
| CC(C)Sc1ccc(-c2cc3ccccc3[nH]2)cc1 [Stabilizer 17, 2-(4'-isopropylthio-phenyl)-indole] |  |  | very rapidly found to be superior to 2-phenyl-indole | 1 | 1 | 2 | 4 | 10 | 13 GARDNER degrees | burnt | Colouration of sheet (GARDNER Scale) ([3]; 0 min): 1 GARDNER degrees; Colouration of sheet (GARDNER Scale) ([3]; 6 min): 1 GARDNER degrees; Colouration of sheet (GARDNER Scale) ([3]; 12 min): 2 GARDNER degrees; Colouration of sheet (GARDNER Scale) ([3]; 18 min): 4 GARDNER degrees; Colouration of sheet (GARDNER Scale) ([3]; 24 min): 9 GARDNER degrees; Colouration of sheet (GARDNER Scale) ([3]; 30 min): 11 GARDNER degrees; Colouration of sheet (GARDNER Scale) ([3]; 36 min): 12 GARDNER degrees; Colouration of sheet (GARDNER Scale) ([3]; 42 min): 13 GARDNER degrees; Colouration of sheet (GARDNER Scale) ([3]; 48 min): 14 GARDNER degrees; Colouration of sheet (GARDNER Scale) ([3]; 54 min): burnt |
| Nc1ccc(-c2cc3ccccc3[nH]2)cc1 [Stabilizer 22, 2-(4'-amino-phenyl)-indole] |  |  | developed less rapidly than that due to 2-phenyl-indole | 2 | 3 | 3 | 4 | 6 | 12 GARDNER degrees | burnt | Colouration given to the polymer [2]: relatively strong yellow colouration |
| O=C(Nc1ccccc1-c1cc2ccccc2[nH]1)c1ccccc1 [Stabilizer 25, 2-(2'-N-benzoylamino-phenyl)-indole] |  |  | slightly superior to 2-phenyl-indole | 2 | 2 | 4 | 6 | 9 | 12 GARDNER degrees | burnt |  |
| c1ccc(-c2ccc(-c3cc4ccccc4[nH]3)cc2)cc1 [Stabilizer 26, 2(4'-phenyl-phenyl)-indole] |  |  | markedly superior to 2-phenyl-indole | 2 | 2 | 3 | 4 | 5 | 12 GARDNER degrees | 14 GARDNER degrees |  |
